From US11229618B2 (Amarin Pharmaceuticals Ireland Limited, priority 2012, dated 2022)
Entries after “also recorded” stand apart in the source; their conditions may differ.

Key:
[1] = AAMI 6-week study: safety and tolerability; assay type: in vivo, human
Procedure: All randomized subjects that received at least 1 dose of study medication were included in the Safety Population.
Safety evaluations were based on the safety population. Safety and tolerability were assessed in terms of AEs, vital signs, 12-lead ECG, clinical laboratory data, medical history, and study drug compliance. Safety and tolerability data were presented by treatment group.

[2] = Phase 1 multidose pharmacokinetic study: total EPA in plasma (LC-MS/MS); assay type: in vivo, human; settings: for Total EPA in plasma, CL/F: day 28; for mean plasma CL/F of ethyl eicosapentaenoate: human
Procedure: A study to characterize the pharmacokinetics of ethyl eicosapentaenoate in plasma and red blood cells after multiple-dose administration of IPE at 2 g per day and 4 g per day was performed in healthy adult male and female humans.
The study was a phase 1, open-label, randomized, multidose study in healthy, nonsmoking men and women aged>18 and ≤55 years with a body mass index (BMI)>18 and ≤30 kg/m′. Exclusion criteria included use within 6 weeks prior to randomization through study end of any lipid-altering medications or supplements, including statins, niacin at levels of greater than 200 mg/day, fibrates, ezetimibe, bile acid sequestrants, omega-3 fatty acid medications, and supplements or foods enriched with omega-3 fatty acids (no more than 2 servings of fish per week were permitted).
Following a 14-day screening period, subjects entered a 28-day treatment period and were randomized to one of four IPE dose regimen treatment groups as shown in FIG. 1. Group 1 received IPE 2 g daily (1000-mg capsules; twice-daily [BID] regimen); Group 2 received IPE 4 g daily (1000-mg capsules; BID regimen); Group 3 received IPE 2 g daily (1000-mg capsules; once-daily [QD] regimen); and Group 4 received IPE 2 g daily (500-mg capsules; BID regimen). Treatment was administered orally, with or following a meal in the morning and evening for BID regimens, or in the morning only for the QD regimen. Subjects then entered an 18-day post-treatment pharmacokinetic sampling period.
Fasting EPA concentrations were measured with a validated liquid chromatography with tandem mass spectrometry (LC-MS/MS) method in plasma and RBCs prior to the morning dose (days 1, 14, 26, 28) and at serial time points (1, 3, 5, 6, 8, 10, 12, 24, 48, 72, 120, 192, 312, and 432 hours) after the morning dose on day 28. After the last dose on day 28, EPA concentrations were followed for 18 days to estimate the expected long half-life of EPA. Total plasma EPA included all EPA forms (unesterified EPA and that incorporated in phospholipids, triacylglycerols, and cholesteryl esters). In RBCs, EPA was measured in the cell membrane, where EPA is mainly incorporated in phospholipids.
For total EPA in plasma and RBCs, lipids were isolated by acid/methanol/chloroform extraction followed by centrifugation and purified by isohexane and solid-phase extraction after confirmed complete lipid hydrolysis and transmethylation (acid/methanol, 50° C. overnight). For unesterified EPA in plasma, 25 μL of an inhibitor solution (0.5 g sodium fluoride, 1.0 g L-ascorbic acid, and 0.25 g 5-methylisoxazole-3-carboxylic acid per 10 mL water) was included per 1 mL plasma sample to prevent degradation and lipids were isolated by centrifugation after methanol/chloroform extraction (without hydrolysis or methylation) and further purified by protein precipitation and solid-phase extraction. Quantitation utilized linolenic acid as an internal standard and EPA as the standard for the calibration curve; for total plasma EPA, RBC EPA, and unesterified EPA, the lower limits of quantitation were 10 μg/mL, 5 μg/mL, and 50 ng/mL, respectively. EPA concentrations were measured at Charles River Laboratories Ltd (Elphinstone Research Center, Tranent, Edinburgh, Scotland, UK).
Unless otherwise specified, all reported parameters are based on baseline-subtracted concentrations (baseline is due to EPA derived from dietary sources).

CC/C=C\C/C=C\C/C=C\C/C=C\C/C=C\CCCC(=O)OCC [IPE, all-cis eicosa-5,8,11,14,17-pentaenoic acid ethyl ester]
TEAEs Definitely Related to the study drug [1]: No TEAEs were Definitely Related | deaths during the study [1]: no deaths | nausea Probably Related to the study drug ([1]; 1 g): One subject | subjects with nausea Possibly Related to the study drug ([1]; 1 g cohort): two | subjects with nausea Possibly Related to the study drug ([1]; 2 g cohort): one | serious adverse events ([1]; 2 g treatment group): One SAE | subjects discontinued due to TEAEs ([1]; 2 g treatment group): 2 subjects | diarrhea Probably Related to the study drug ([1]; 4 g): Another subject | subjects with nausea Possibly Related to the study drug ([1]; 4 g cohort): two | severity and relatedness of most TEAEs ([1]; all groups): mild in severity and unrelated to study drug | treatment emergent AEs (TEAEs) reported ([1]; ethyl-EPA treatment groups (placebo groups 34 events)): 105 events | dose linearity of EPA exposure (dose-normalized AUC and maximum concentration) ([2]; 2 g/day vs 4 g/day (Group 1 vs. Group 2), total plasma, total RBCs, unesterified EPA): Dose linearity was observed; also recorded: dose-proportional | comparison of exposure between QD and BID regimens ([2]; 2 g/day, Group 1 vs. Group 3): similarity between QD and BID regimens | comparison of exposure between 1×1000-mg and 2×500-mg formulations ([2]; 2 g/day, Group 1 vs. Group 4): similarity; also recorded: comparable exposures at comparable doses | Total EPA in plasma, CL/F ([2]; Group 1: IPE 2 g/d 1 × 1000 mg BID): 776.4 mL/h | Total EPA in plasma, CL/F ([2]; Group 2: IPE 4 g/d 2 × 1000 mg BID): 683.7 mL/h | Total EPA in plasma, CL/F ([2]; Group 3: IPE 2 g/d 2 × 1000 mg QD): 867.7 mL/h | Total EPA in plasma, CL/F ([2]; Group 4: IPE 2 g/d 2 × 500 mg BID): 684.5 mL/h | mean plasma CL/F of ethyl eicosapentaenoate ([2]; about 1 g orally twice per day): about 776.4+/−256.9 mL/h | mean plasma CL/F of ethyl eicosapentaenoate ([2]; about 2 g orally twice per day): about 683.7+/−280.6 mL/h | effect of age on AUC0-24hr and maximum concentration of total and unesterified plasma EPA ([2]; graphical examination): no effect of age was observed | effect of gender on EPA exposure parameters ([2]; in vivo): no consistent gender effect was observed
